From US12570923B2, “Tuning sulfonation and controlling oleo-furan surfactant compositions” (SIRONIX RENEWABLES, INC., priority 2021, dated 2026)

Experiments:
Type in all cases: physicochemical
[1] = Krafft point (temperature below which the surfactant forms a solid precipitate)
Description: (§1) Certain surfactant properties and performance metrics of synthesized surfactants structures according to General Structure 1 (GS1), including several exemplary surfactant blends prepared according to the methods disclosed previously herein, were measured. […] For example, the α-OMFS-12-1/O surfactant with a sulfonate on the surfactant's alkyl chain provides faster wetting kinetics, as compared to the ring sulfonate 4-OMFS-12-1/O which has slower fabric wetting kinetics yet generates more foam in high shear conditions, or the disulfonate surfactant sulfonated on both the ring and alkyl chain (4,α-OMFS-12-1/O) which has slower fabric wetting and generates less foam than either of the aforementioned monosulfonates surfactants, yet has a higher solubility that can be helpful in building product formulations. Accordingly, these differing performance metrics can be leveraged by selecting the particular disclosed surfactant structure corresponding to the performance metrics useful in a specific application of the surfactant structure.

[2] = Solubility in deionized water; conditions: deionized water at 20° C.
Description: Certain surfactant properties and performance metrics of synthesized surfactants structures according to General Structure 1 (GS1), including several exemplary surfactant blends prepared according to the methods disclosed previously herein, were measured.

[3] = Surface tension at critical micelle concentration; conditions: at CMC
Description: as §1

[4] = Critical micelle concentration
Description: as §1

Compound	Krafft Point [1]	Solubility [2]	Surface Tension at critical micelle concentration [3]	CMC (critical micelle concentration) [4]
CCCCCCCCCCC(C(=O)c1cc(S(=O)(=O)O)c(C)o1)S(=O)(=O)O.N.N (stereo not drawn) [NH4^+4,α-OMFS-12-1/0]	<0 °C	500 mg/mL	39 mN/m	3545 ppm
CCCCCCCCCCC(C(=O)c1cc(S(=O)(=O)[O-])c(C)o1)S(=O)(=O)[O-].[Na+].[Na+] (stereo not drawn) [Na^+ 4,α-OMFS-12-1/0]	<0 °C	900 mg/mL		
CCCCCCCCCCCCC(C(=O)c1cc(S(=O)(=O)[O-])c(C)o1)S(=O)(=O)[O-].[Na+].[Na+] (stereo not drawn) [Na^+ 4,α-OMFS-14-1/0]	<0 °C	600 mg/mL		
CCCCCCCCCCCCCCCCC(C(=O)c1cc(S(=O)(=O)[O-])c(C)o1)S(=O)(=O)[O-].[Na+].[Na+] (stereo not drawn) [Na^+ 4,α-OMFS-18-1/0]	<0 °C			
CCCCCCCCCCCC(=O)c1cc(S(=O)(=O)[O-])c(C)o1.[Na+] [Na^+ 4-OMFS-12-1/0]	<0 °C	800 mg/mL	42 mN/m	1480 ppm
CCCCCCCCCCC(C(=O)c1ccc(C)o1)S(=O)(=O)[O-].[Na+] (stereo not drawn) [Na^+ α-OMFS-12-1/0]	<0 °C	800 mg/mL		
